Source: the NIST ThermoML archive (doi:10.1016/j.jct.2017.04.017)
Numbers after ± are expanded uncertainties.

Columns and labels:
[1] = Molar enthalpy of transition or fusion; details: Crystal; DSC
[2] = Crystal; DTA

## O=C(Nc1ccccc1-c1ccc(Cl)cc1)c1cccnc1Cl [Boscalid]
[1]
  Molar enthalpy of transition or fusion: 8.9 ± 0.335 kcal/mol
[2]
  Normal melting temperature: 146.73 ± 0.61 °C
